According to patent US8772343B2, “Chemical compounds” (Pfizer Limited, priority 2010, dated 2014):

Molecular target: T1, Nav1.7 (or SCN9A) channel (Homo sapiens, UniProt Q15858)
T1 construct: expressed in transfected cells
Assay: Nav1.7 PatchXpress automated whole-cell electrophysiology in HEK cells expressing hSCN9A
Assay type: cell-based
Details: estimated IC50 from single point data, PatchXpress assay, held at V1/2 of inactivation, read-out: Nav1.7 EIC50
Experimental: The ability of the compounds of formula (I) to block the Nav1.7 (or SCN9A) channel were measured using the assay described below.
Human Embryonic Kidney (HEK) cells were transfected with an hSCN9A construct using lipofectamine reagent (Invitrogen), using standard techniques. Cells stably expressing the hSCN9A constructs were identified by their resistance to G-418 (400 μg/ml). Clones were screened for expression using the whole-cell voltage-clamp technique.
HEK cells stably transfected with hSCN9A were maintained in DMEM medium supplemented with 10% heat-inactivated fetal bovine serum and 400 μg/ml G-418 in an incubator at 37° C. with a humidified atmosphere of 10% CO2. For HTS, cells were harvested from flasks by trypsinization and replated in an appropriate multi-well plate (typically 96 or 384 wells/plate) such that confluence would be achieved within 24 hours of plating. For electrophysiological studies, cells were removed from the culture flask by brief trypsinization and re-plated at low density onto glass cover slips. Cells were typically used for electrophysiological experiments within 24 to 72 hours after plating.
Cover slips containing HEK cells expressing hSCN9A were placed in a bath on the stage of an inverted microscope and perfused (approximately 1 ml/minutes) with extracellular solution of the following composition: 138 mM NaCl, 2 mM CaCl2, 5.4 mM KCl, 1 mM MgCl2, 10 mM glucose, and 10 mM HEPES, pH 7.4, with NaOH. […] The osmolarity of the extracellular and intracellular solutions was 300 mOsm/kg and 295 mOsm/kg, respectively. All recordings were made at room temperature (22-24° C.) using AXOPATCH 200B amplifiers and PCLAMP software (Axon Instruments, Burlingame, Calif.).
hSCN9A currents in HEK cells were measured using the whole-cell configuration of the patch-clamp technique (Hamill et al., 1981). Uncompensated series resistance was typically 2 to 5 mega ohms and >85% series resistance compensation was routinely achieved. As a result, voltage errors were negligible and no correction was applied. Current records were acquired at 20 to 50 KHz and filtered at 5 to 10 KHz.
HEK cells stably transfected with hSCN9A were viewed under Hoffman contrast optics and placed in front of an array of flow pipes emitting either control or compound-containing extracellular solutions. All compounds were dissolved in dimethyl sulfoxide to make 10 mM stock solutions, which were then diluted into extracellular solution to attain the final concentrations desired. […] The voltage-dependence of inactivation was determined by applying a series of depolarizing prepulses (8 sec long in 10 mV increments) from a negative holding potential. The voltage was then immediately stepped to 0 mV to assess the magnitude of the sodium current. Currents elicited at 0 mV were plotted as a function of prepulse potential to allow estimation of the voltage at which 50% of the channels were inactivated (midpoint of inactivation or V1/2). Compounds were tested for their ability to inhibit hSCN9A sodium channels by activating the channel with a 20 msec voltage step to 0 mV following an 8 second conditioning prepulse to the empirically determined V1/2. Compound effect (% inhibition) was determined by difference in current amplitude before and after application of test compounds. For ease of comparison, “estimated IC-50” (EIC50) values were calculated from single point electrophysiology data by the following equation, (tested concentration, uM)×(100-% inhibition/% inhibition). Inhibition values<20% and >80% were excluded from the calculation.
Electrophysiological assays were conducted with PatchXpress 7000 hardware and associated software (Molecular Devices Corp). All assay buffers and solutions were identical to those used in conventional whole-cell voltage clamp experiments described above. hSCN9A cells were grown as above to 50%-80% confluency and harvested by trypsinization. […]

T1 sequence (Q15858 whole entry): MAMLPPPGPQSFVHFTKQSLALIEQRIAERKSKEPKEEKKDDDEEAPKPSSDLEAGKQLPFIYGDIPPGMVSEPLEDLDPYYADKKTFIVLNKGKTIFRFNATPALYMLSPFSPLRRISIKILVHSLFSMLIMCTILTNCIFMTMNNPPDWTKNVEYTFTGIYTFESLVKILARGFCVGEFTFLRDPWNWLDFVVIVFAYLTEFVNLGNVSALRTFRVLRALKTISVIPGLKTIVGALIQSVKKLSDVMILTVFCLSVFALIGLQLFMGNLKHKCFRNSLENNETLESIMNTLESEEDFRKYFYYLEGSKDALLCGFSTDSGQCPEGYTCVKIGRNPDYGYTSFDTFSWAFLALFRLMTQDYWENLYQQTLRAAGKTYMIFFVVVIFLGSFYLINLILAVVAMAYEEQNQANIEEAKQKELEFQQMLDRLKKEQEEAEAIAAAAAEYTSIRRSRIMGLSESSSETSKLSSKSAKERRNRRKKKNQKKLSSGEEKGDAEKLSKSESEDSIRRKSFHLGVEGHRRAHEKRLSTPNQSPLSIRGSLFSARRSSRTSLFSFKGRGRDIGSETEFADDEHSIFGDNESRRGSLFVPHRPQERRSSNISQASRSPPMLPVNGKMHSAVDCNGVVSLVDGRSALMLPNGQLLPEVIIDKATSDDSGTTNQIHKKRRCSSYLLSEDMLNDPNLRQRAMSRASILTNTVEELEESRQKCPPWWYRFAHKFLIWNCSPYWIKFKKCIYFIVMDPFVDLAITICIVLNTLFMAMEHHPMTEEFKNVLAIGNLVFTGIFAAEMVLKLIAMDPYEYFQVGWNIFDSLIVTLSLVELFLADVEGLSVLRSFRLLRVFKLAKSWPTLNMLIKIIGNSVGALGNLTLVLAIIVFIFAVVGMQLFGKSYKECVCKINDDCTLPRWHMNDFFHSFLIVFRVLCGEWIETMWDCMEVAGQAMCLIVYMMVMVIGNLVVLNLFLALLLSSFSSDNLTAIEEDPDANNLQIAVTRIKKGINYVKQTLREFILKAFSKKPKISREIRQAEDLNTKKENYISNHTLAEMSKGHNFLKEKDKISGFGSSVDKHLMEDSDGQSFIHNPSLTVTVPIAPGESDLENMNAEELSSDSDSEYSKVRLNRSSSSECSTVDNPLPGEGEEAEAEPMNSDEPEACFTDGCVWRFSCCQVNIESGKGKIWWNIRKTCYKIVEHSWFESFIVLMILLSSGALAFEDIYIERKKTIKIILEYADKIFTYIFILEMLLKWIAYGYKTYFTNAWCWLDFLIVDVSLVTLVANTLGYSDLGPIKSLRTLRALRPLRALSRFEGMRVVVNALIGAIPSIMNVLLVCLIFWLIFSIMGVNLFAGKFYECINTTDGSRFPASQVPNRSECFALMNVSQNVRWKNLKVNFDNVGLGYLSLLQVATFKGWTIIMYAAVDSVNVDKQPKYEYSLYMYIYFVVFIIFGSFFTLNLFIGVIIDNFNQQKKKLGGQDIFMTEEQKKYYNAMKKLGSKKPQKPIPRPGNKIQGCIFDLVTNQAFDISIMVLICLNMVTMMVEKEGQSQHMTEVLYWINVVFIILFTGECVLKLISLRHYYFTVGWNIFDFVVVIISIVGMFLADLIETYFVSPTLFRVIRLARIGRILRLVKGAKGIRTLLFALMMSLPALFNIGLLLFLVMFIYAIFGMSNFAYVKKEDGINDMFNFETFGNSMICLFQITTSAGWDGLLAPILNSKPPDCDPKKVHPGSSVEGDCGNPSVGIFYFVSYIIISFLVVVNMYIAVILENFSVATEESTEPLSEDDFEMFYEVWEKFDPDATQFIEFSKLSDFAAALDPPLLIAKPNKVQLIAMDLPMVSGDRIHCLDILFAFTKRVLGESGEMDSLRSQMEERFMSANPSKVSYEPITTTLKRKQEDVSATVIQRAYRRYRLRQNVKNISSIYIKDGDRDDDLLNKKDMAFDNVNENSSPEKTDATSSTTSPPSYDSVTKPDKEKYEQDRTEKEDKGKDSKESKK

| SMILES | IC50 [nM] |
| --- | --- |
| COc1ncccc1-c1cc(C(=O)NS(C)(=O)=O)ccc1Oc1ccc(F)c(C(F)(F)F)c1 [Example 78, 4-[4-fluoro-3-(trifluoromethyl)phenoxy]-3-(2-methoxypyridin-3-yl)-N-(methylsulfonyl)benzamide] | 150 |
| COc1ccc(Oc2ccc(C(=O)NS(C)(=O)=O)cc2-c2cccnc2OC)c(F)c1 [Example 79, 4-(2-fluoro-4-methoxyphenoxy)-3-(2-methoxypyridin-3-yl)-N-(methylsulfonyl)benzamide] | 2400 |
| COc1ncccc1-c1cc(C(=O)NS(C)(=O)=O)ccc1Oc1cccc(C(F)(F)F)c1F [Example 81, 4-[2-fluoro-3-(trifluoromethyl)phenoxy]-3-(2-methoxypyridin-3-yl)-N-(methylsulfonyl)benzamide] | 1100 |
| COc1ncccc1-c1cc(C(=O)NS(C)(=O)=O)ccc1Oc1ccccc1C(F)(F)F [Example 82, 3-(2-methoxypyridin-3-yl)-N-(methylsulfonyl)-4-[2-(trifluoromethyl)phenoxy]benzamide] | > 1000 |
| COc1ncccc1-c1cc(C(=O)NS(C)(=O)=O)ccc1Oc1ccc(F)cc1F [Example 86, 4-(2,4-difluorophenoxy)-3-(2-methoxypyridin-3-yl)-N-(methylsulfonyl)benzamide] | 1100 |
| COc1ncccc1-c1cc(C(=O)NS(C)(=O)=O)ccc1Oc1ccc(C#N)c(Cl)c1 [Example 88, 4-(3-chloro-4-cyanophenoxy)-3-(2-methoxypyridin-3-yl)-N-(methylsulfonyl)benzamide] | 2500 |
| COc1ncccc1-c1cc(C(=O)NS(C)(=O)=O)ccc1Oc1cncc(Cl)c1 [Example 90, 4-[(5-chloropyridin-3-yl)oxy]-3-(2-methoxypyridin-3-yl)-N-(methylsulfonyl)benzamide] | 1400 |

Continued, values first:

| IC50 [nM] | SMILES |
| --- | --- |
| < 1000 | CCc1ccc(Oc2ccc(C(=O)NS(C)(=O)=O)cc2-c2cccnc2OC)cc1 [Example 77, 4-(4-ethylphenoxy)-3-(2-methoxypyridin-3-yl)-N-(methylsulfonyl)benzamide] |
| > 1000 | CCc1ccccc1Oc1ccc(C(=O)NS(C)(=O)=O)cc1-c1cccnc1OC [Example 80, 4-(2-ethylphenoxy)-3-(2-methoxypyridin-3-yl)-N-(methylsulfonyl)benzamide] |
| 490 | CCOc1ccc(Oc2ccc(C(=O)NS(C)(=O)=O)cc2-c2cccnc2OC)cc1 [Example 83, 4-(4-ethoxyphenoxy)-3-(2-methoxypyridin-3-yl)-N-(methylsulfonyl)benzamide] |
| 490 | CCOc1cccc(Oc2ccc(C(=O)NS(C)(=O)=O)cc2-c2cccnc2OC)c1 [Example 84, 4-(3-ethoxyphenoxy)-3-(2-methoxypyridin-3-yl)-N-(methylsulfonyl)benzamide] |
| 640 | COc1cccc(Oc2ccc(C(=O)NS(C)(=O)=O)cc2-c2cccnc2OC)c1 [Example 85, 4-(3-methoxyphenoxy)-3-(2-methoxypyridin-3-yl)-N-(methylsulfonyl)benzamide] |
| 86 | COc1ncccc1-c1cc(C(=O)NS(C)(=O)=O)ccc1Oc1ccc(C(F)(F)F)cc1 [Example 87, 3-(2-methoxypyridin-3-yl)-N-(methylsulfonyl)-4-[4-(trifluoromethyl)phenoxy]benzamide] |
| 160 | CCc1cccc(Oc2ccc(C(=O)NS(C)(=O)=O)cc2-c2cccnc2OC)c1 [Example 89, 4-(3-ethylphenoxy)-3-(2-methoxypyridin-3-yl)-N-(methylsulfonyl)benzamide] |
| 680 | COc1ncccc1-c1cc(C(=O)NS(C)(=O)=O)ccc1Oc1ccc(F)cc1 [Example 91, 4-(4-fluorophenoxy)-3-(2-methoxypyridin-3-yl)-N-(methylsulfonyl)benzamide] |
| 38 | COc1ncccc1-c1cc(C(=O)NS(C)(=O)=O)ccc1Oc1ccc(C(C)C)cc1 [Example 92, 4-(4-isopropylphenoxy)-3-(2-methoxypyridin-3-yl)-N-(methylsulfonyl)benzamide] |
